Assay results: ChEMBL document CHEMBL3217516, “Library synthesis and cytotoxicity of a family of 2-phenylacrylonitriles and discovery of an estrogen dependent breast cancer lead compound” (Medchemcomm, 2011)

Columns and labels:
[1] = Cytotoxicity against human MIA cells at 100 uM after 72 hrs by MTT assay; format: functional; settings: read-out: GI
[2] = Cytotoxicity against human SJ-G2 cells at 100 uM after 72 hrs by MTT assay; format: functional; settings: SJ-G2, 72 h, read-out: GI
A2780 [3] = assay: Cytotoxicity against human A2780 cells at 100 uM after 72 hrs by MTT assay; format: functional; settings: A2780, 72 h, read-out: GI
A-431 [4] = assay: Cytotoxicity against human A431 cells at 100 uM after 72 hrs by MTT assay; format: functional; settings: A-431, 72 h, read-out: GI
HT-29 [5] = assay: Cytotoxicity against human HT-29 cells at 100 uM after 72 hrs by MTT assay; format: functional; settings: HT-29, 72 h, read-out: GI
DU-145 [6] = assay: Cytotoxicity against human DU145 cells at 100 uM after 72 hrs by MTT assay; format: functional; settings: DU-145, 72 h, read-out: GI
[7] = Cytotoxicity against human BE(2)-C cells at 100 uM after 72 hrs by MTT assay; format: functional; settings: read-out: GI
[8] = Cytotoxicity against human H460 cells at 100 uM after 72 hrs by MTT assay; format: functional; settings: NCI-H460, 72 h, read-out: GI
MCF7 [9] = assay: Cytotoxicity against human MCF7 cells at 100 uM after 72 hrs by MTT assay; format: functional; settings: MCF7, 72 h, read-out: GI
SW480 [10] = assay: Cytotoxicity against human SW480 cells at 100 uM after 72 hrs by MTT assay; format: functional; settings: SW480, 72 h, read-out: GI
DU-145 [11] = assay: Selectivity ratio of GI50 for human DU145 cells to GI50 for human MCF7 cells; format: functional
MCF7 [12] = assay: Selectivity ratio of GI50 for human MDA-MB-231 cells to GI50 for human MCF7 cells; format: functional
A2780 [13] = assay: Selectivity ratio of GI50 for human A2780 cells to GI50 for human MCF7 cells; format: functional
MCF7 [14] = assay: Selectivity ratio of GI50 for human SW480 cells to GI50 for human MCF7 cells; format: functional
[15] = Cytotoxicity against human MCF10A cells after 72 hrs by MTT assay; format: cell-based, MCF-10A
MCF7 [16] = assay: Selectivity ratio of GI50 for human HT29 cells to GI50 for human MCF7 cells; format: functional
MCF7 [17] = assay: Selectivity ratio of GI50 for human MIA cells to GI50 for human MCF7 cells; format: functional
MCF7 [18] = assay: Selectivity ratio of GI50 for human A431 cells to GI50 for human MCF7 cells; format: functional
[19] = Cytotoxicity against human MIA cells after 72 hrs by MTT assay; format: functional
MCF7 [20] = assay: Selectivity ratio of GI50 for human SJ-G2 cells to GI50 for human MCF7 cells; format: functional
[21] = Selectivity ratio of GI50 for human MCF10A cells to GI50 for human MCF7 cells; format: ADME, cell-based, MCF-10A; settings: MCF10A cells and MCF7 cells, read-out: RatioGI50
[22] = Cytotoxicity against human MDA-MB-231 cells after 72 hrs by MTT assay; format: cell-based
MCF7 [23] = assay: Selectivity ratio of GI50 for human H460 cells to GI50 for human MCF7 cells; format: functional
MCF7 [24] = assay: Selectivity ratio of GI50 for human BE(2)-C cells to GI50 for human MCF7 cells; format: functional
DU-145 [25] = assay: Selectivity ratio of GI50 for human DU145 cells to GI50 for human A431 cells; format: functional
A2780 [26] = assay: Selectivity ratio of GI50 for human DU145 cells to GI50 for human A2780 cells; format: functional
SW480 [27] = assay: Selectivity ratio of GI50 for human DU145 cells to GI50 for human SW480 cells; format: functional
DU-145 [28] = assay: Selectivity ratio of GI50 for human DU145 cells to GI50 for human H460 cells; format: functional
A-431 [29] = assay: Cytotoxicity against human A431 cells after 72 hrs by MTT assay; format: functional; settings: A-431, 72 h
[30] = Cytotoxicity against human BE(2)-C cells after 72 hrs by MTT assay; format: functional
DU-145 [31] = assay: Cytotoxicity against human DU145 cells after 72 hrs by MTT assay; format: functional; settings: DU-145, 72 h
DU-145 [32] = assay: Selectivity ratio of GI50 for human H460 cells to GI50 for human DU145 cells; format: functional
MCF7 [33] = assay: Cytotoxicity against human MCF7 cells after 72 hrs by MTT assay; format: functional; settings: MCF7, 72 h
[34] = Selectivity ratio of GI50 for human H460 cells to GI50 for human MIA cells; format: functional
HT-29 [35] = assay: Selectivity ratio of GI50 for human H460 cells to GI50 for human HT29 cells; format: functional
[36] = Cytotoxicity against human SJ-G2 cells after 72 hrs by MTT assay; format: functional; settings: SJ-G2, 72 h
[37] = Selectivity ratio of GI50 for human H460 cells to GI50 for human SJ-G2 cells; format: functional
DU-145 [38] = assay: Selectivity ratio of GI50 for human DU145 cells to GI50 for human MIA cells; format: functional
A2780 [39] = assay: Cytotoxicity against human A2780 cells after 72 hrs by MTT assay; format: functional; settings: A2780, 72 h
HT-29 [40] = assay: Cytotoxicity against human HT-29 cells after 72 hrs by MTT assay; format: functional; settings: HT-29, 72 h
SW480 [41] = assay: Selectivity ratio of GI50 for human H460 cells to GI50 for human SW480 cells; format: functional
[42] = Selectivity ratio of GI50 for human H460 cells to GI50 for human BE(2)-C cells; format: functional
[43] = Cytotoxicity against human H460 cells after 72 hrs by MTT assay; format: functional; settings: NCI-H460, 72 h
[44] = Selectivity ratio of GI50 for human H460 cells to GI50 for human A431 cells; format: functional
DU-145 [45] = assay: Selectivity ratio of GI50 for human DU145 cells to GI50 for human HT29 cells; format: functional
A2780 [46] = assay: Selectivity ratio of GI50 for human H460 cells to GI50 for human A2780 cells; format: functional
DU-145 [47] = assay: Selectivity ratio of GI50 for human DU145 cells to GI50 for human SJ-G2 cells; format: functional
SW480 [48] = assay: Cytotoxicity against human SW480 cells after 72 hrs by MTT assay; format: functional; settings: SW480, 72 h
DU-145 [49] = assay: Selectivity ratio of GI50 for human DU145 cells to GI50 for human BE(2)-C cells; format: functional

Compound | inhibition of growth at 100 µM [1] | inhibition of growth at 100 µM [2] | inhibition of growth at 100 µM (A2780 [3]) | inhibition of growth at 100 µM (A-431 [4]) | inhibition of growth at 100 µM (HT-29 [5]) | inhibition of growth at 100 µM (DU-145 [6]) | inhibition of growth at 100 µM [7] | inhibition of growth at 100 µM [8] | inhibition of growth at 100 µM (MCF7 [9]) | inhibition of growth at 100 µM (SW480 [10]) | GI50 [19] | GI50 (A-431 [29]) | GI50 [30] | GI50 (DU-145 [31]) | GI50 (MCF7 [33]) | GI50 [36] | GI50 (A2780 [39]) | GI50 (HT-29 [40]) | GI50 [43] | GI50 (SW480 [48]) | further results
N#CC(Cc1ccc[nH]1)c1ccccc1 (centres undefined) | 30% | 27% | 76% | 20% | 39% | 7% | 43% | 15% | 47% | 40% | – | – | – | – | – | – | – | – | – | – | –
N#C/C(=C\c1ccc([N+](=O)[O-])cc1)c1ccc(Cl)c(Cl)c1 | – | – | – | – | – | – | – | – | – | – | 27 µM | – | – | – | – | – | – | – | – | – | RatioGI50 (DU-145 [11]): 543; RatioGI50 (MCF7 [12]): 268; RatioGI50 (A2780 [13]): 543; RatioGI50 (MCF7 [14]): 543; GI50 at 72 h [15]: 16 µM; RatioGI50 (MCF7 [16]): 25; RatioGI50 (MCF7 [17]): 543; RatioGI50 (MCF7 [18]): 543; RatioGI50 (MCF7 [20]): 543; selectivity ratio [21]: 126; GI50 at 72 h [22]: 34 µM; RatioGI50 (MCF7 [23]): 543; RatioGI50 (MCF7 [24]): 543
N#C/C(=C\c1ccccc1)c1ccc(Cl)c(Cl)c1 | 61% | 72% | 62% | 71% | 56% | 36% | 47% | 36% | 79% | 67% | – | – | – | – | – | – | – | – | – | – | –
N#C/C(=C\c1cccc(Cl)c1)c1ccc(Cl)c(Cl)c1 | – | – | – | – | – | – | – | – | – | – | 15 µM | 16 µM | 12 µM | 55 µM | 7.2 µM | 12 µM | 11 µM | 8.4 µM | 40 µM | 8.9 µM | RatioGI50 (DU-145 [25]): 5; RatioGI50 (A2780 [26]): 5; RatioGI50 (SW480 [27]): 5; RatioGI50 (DU-145 [28]): 5; RatioGI50 (DU-145 [32]): 5; RatioGI50 [34]: 5; RatioGI50 (HT-29 [35]): 5; RatioGI50 [37]: 5; RatioGI50 (DU-145 [38]): 5; RatioGI50 (SW480 [41]): 5; RatioGI50 [42]: 5; RatioGI50 [44]: 5; RatioGI50 (DU-145 [45]): 5; RatioGI50 (A2780 [46]): 5; RatioGI50 (DU-145 [47]): 5; RatioGI50 (DU-145 [49]): 5
CCCCCCCCC/C=C(\C#N)c1ccc(Cl)c(Cl)c1 | 22% | 70% | 24% | 88% | 53% | 87% | 73% | 100% | 49% | 68% | – | – | – | – | – | – | – | – | – | – | –
N#C/C(=C\c1ccc[nH]1)c1ccc(Cl)c(Cl)c1 | – | – | – | – | – | – | – | – | – | – | 46 µM | 3.2 µM | 25 µM | 41 µM | 0.56 µM | 20 µM | 16 µM | 15 µM | 5.7 µM | 23 µM | RatioGI50 (MCF7 [12]): 268; GI50 at 72 h [15]: 28 µM; selectivity ratio [21]: 126; GI50 at 72 h [22]: 46 µM
N#C/C(=C\c1ccc(Cl)cc1)c1ccc(Cl)c(Cl)c1 | – | – | – | – | – | – | – | – | – | – | 4 µM | 4.3 µM | 4.1 µM | 12 µM | 4.3 µM | 6.1 µM | 4 µM | 2.5 µM | 4.8 µM | 5 µM | –
N#CC(Cc1ccc[nH]1)c1ccc(Cl)c(Cl)c1 (centres undefined) | 20% | 33% | 63% | 44% | 51% | 24% | 42% | 55% | 84% | 34% | – | – | – | – | – | – | – | – | – | – | –
